Data from the supplement of paper PMC10307832.

How the values were obtained:
Assay in all cases: relative viability (nuclei count vs DMSO), 5 days (fraction); higher = more cells survive
[1] = compound: CN(NC(=O)CC(=O)NN(C)C(=S)c1ccccc1)C(=S)c1ccccc1 [Elesclomol] + N=C(N)NC(=N)NCCc1ccccc1 [Phenformin] (partner 250 µM)
Procedure, shortened: (§1)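 One day after seeding in 1536-well plates, lung cancer cell lines were dosed by pin tool. Dosing was either single-drug or a fixed anchor-drug dose plus five library-drug doses (not always all listed) in √10 steps. After 5 days, nuclei were stained in one fix-and-stain step and counted on 4× images, and relative viability is the nuclei count of treated wells over that of vehicle wells, given as the median of duplicate plates.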

[2] = compound: CN(NC(=O)CC(=O)NN(C)C(=S)c1ccccc1)C(=S)c1ccccc1 [Elesclomol] + Cc1nc(NC(=O)N2CCC[C@H]2C(N)=O)sc1-c1ccnc(C(C)(C)C(F)(F)F)c1 [Alpelisib] (partner 2 µM)
Procedure, shortened: as §1

[3] = compound: CN(NC(=O)CC(=O)NN(C)C(=S)c1ccccc1)C(=S)c1ccccc1 [Elesclomol] + Cc1nc(Nc2ncc(C(=O)Nc3c(C)cccc3Cl)s2)cc(N2CCN(CCO)CC2)n1 [Dasatinib] (partner 0.075 µM)
Procedure, shortened: as §1

[4] = compound: CN(NC(=O)CC(=O)NN(C)C(=S)c1ccccc1)C(=S)c1ccccc1 [Elesclomol] + CS(=O)(=O)CCNCc1ccc(-c2ccc3ncnc(Nc4ccc(OCc5cccc(F)c5)c(Cl)c4)c3c2)o1 [Lapatinib] (partner 2 µM)
Procedure, shortened: as §1

[5] = compound: CN(NC(=O)CC(=O)NN(C)C(=S)c1ccccc1)C(=S)c1ccccc1 [Elesclomol] + NC(=O)Nc1cc(-c2cccc(F)c2)sc1C(=O)N[C@H]1CCCNC1 [AZD7762] (partner 0.2 µM)
Procedure, shortened: as §1

Question: For NCI-H3122, which relative viability ([1]; first compound 0.003162 µM) is on record?
Answer: The relative viability was 0.325.

Question: What about the relative viability ([1]; first compound 0.01 µM) of the same cell line?
Answer: Its relative viability is 0.274.

Question: And the relative viability ([1]; first compound 0.03162 µM)?
Answer: Its relative viability is 0.261.

Question: And the relative viability ([1]; first compound 0.1 µM)?
Answer: Its relative viability is 0.219.

Question: What about the relative viability ([2]; first compound 0.003162 µM) of the same cell line?
Answer: The relative viability was 0.706.

Question: What about the relative viability ([2]; first compound 0.01 µM) of the same cell line?
Answer: Its relative viability is 0.759.

Question: What about the relative viability ([2]; first compound 0.03162 µM) of the same cell line?
Answer: The relative viability was 0.758.

Question: And the relative viability ([2]; first compound 0.1 µM)?
Answer: Its relative viability is 0.159.

Question: What about the relative viability ([3]; first compound 0.003162 µM) of the same cell line?
Answer: Its relative viability is 0.836.

Question: And the relative viability ([3]; first compound 0.01 µM)?
Answer: The relative viability was 0.947.

Question: What about the relative viability ([3]; first compound 0.03162 µM) of the same cell line?
Answer: The relative viability was 0.587.

Question: And the relative viability ([3]; first compound 0.1 µM)?
Answer: The relative viability was 0.0775.

Question: What about the relative viability ([4]; first compound 0.003162 µM) of the same cell line?
Answer: The relative viability was 0.999.

Question: And the relative viability ([4]; first compound 0.01 µM)?
Answer: Its relative viability is 0.989.

Question: What about the relative viability ([4]; first compound 0.03162 µM) of the same cell line?
Answer: The relative viability was 0.978.

Question: And the relative viability ([4]; first compound 0.1 µM)?
Answer: Its relative viability is 0.434.

Question: What about the relative viability ([5]; first compound 0.003162 µM) of the same cell line?
Answer: The relative viability was 0.97.

Question: And the relative viability ([5]; first compound 0.01 µM)?
Answer: The relative viability was 0.972.

Question: And the relative viability ([5]; first compound 0.03162 µM)?
Answer: Its relative viability is 0.912.

Question: And the relative viability ([5]; first compound 0.1 µM)?
Answer: Its relative viability is 0.0974.

Question: For PC-3 [JPC-3], which relative viability ([1]; first compound 0.003162 µM) is on record?
Answer: The relative viability was 0.474.

Question: What about the relative viability ([1]; first compound 0.01 µM) of the same cell line?
Answer: The relative viability was 0.474.

Question: And the relative viability ([1]; first compound 0.03162 µM)?
Answer: Its relative viability is 0.496.

Question: And the relative viability ([1]; first compound 0.1 µM)?
Answer: The relative viability was 0.401.

Question: What about the relative viability ([2]; first compound 0.003162 µM) of the same cell line?
Answer: The relative viability was 0.981.

Question: And the relative viability ([2]; first compound 0.01 µM)?
Answer: Its relative viability is 0.958.

Question: What about the relative viability ([2]; first compound 0.03162 µM) of the same cell line?
Answer: Its relative viability is 1.04.

Question: And the relative viability ([2]; first compound 0.1 µM)?
Answer: The relative viability was 0.778.

Question: What about the relative viability ([3]; first compound 0.003162 µM) of the same cell line?
Answer: The relative viability was 0.913.

Question: And the relative viability ([3]; first compound 0.01 µM)?
Answer: Its relative viability is 0.914.

Question: And the relative viability ([3]; first compound 0.03162 µM)?
Answer: The relative viability was 1.05.

Question: And the relative viability ([3]; first compound 0.1 µM)?
Answer: Its relative viability is 0.647.

Question: What about the relative viability ([4]; first compound 0.003162 µM) of the same cell line?
Answer: Its relative viability is 0.43.

Question: What about the relative viability ([4]; first compound 0.01 µM) of the same cell line?
Answer: Its relative viability is 0.386.

Question: What about the relative viability ([4]; first compound 0.03162 µM) of the same cell line?
Answer: The relative viability was 0.519.

Question: And the relative viability ([4]; first compound 0.1 µM)?
Answer: The relative viability was 0.405.

Question: What about the relative viability ([5]; first compound 0.003162 µM) of the same cell line?
Answer: The relative viability was 0.741.

Question: And the relative viability ([5]; first compound 0.01 µM)?
Answer: The relative viability was 0.539.

Question: What about the relative viability ([5]; first compound 0.03162 µM) of the same cell line?
Answer: Its relative viability is 0.438.

Question: What about the relative viability ([5]; first compound 0.1 µM) of the same cell line?
Answer: The relative viability was 0.401.

Question: For PC-14, which relative viability ([1]; first compound 0.003162 µM) is on record?
Answer: Its relative viability is 0.404.

Question: What about the relative viability ([1]; first compound 0.01 µM) of the same cell line?
Answer: The relative viability was 0.16.

Question: What about the relative viability ([1]; first compound 0.03162 µM) of the same cell line?
Answer: Its relative viability is 0.0586.

Question: And the relative viability ([1]; first compound 0.1 µM)?
Answer: The relative viability was 0.023.

Question: What about the relative viability ([2]; first compound 0.003162 µM) of the same cell line?
Answer: Its relative viability is 0.913.

Question: And the relative viability ([2]; first compound 0.01 µM)?
Answer: The relative viability was 0.558.

Question: What about the relative viability ([2]; first compound 0.03162 µM) of the same cell line?
Answer: The relative viability was 0.0506.

Question: What about the relative viability ([2]; first compound 0.1 µM) of the same cell line?
Answer: The relative viability was 0.0344.

Question: What about the relative viability ([3]; first compound 0.003162 µM) of the same cell line?
Answer: The relative viability was 0.0703.

Question: And the relative viability ([3]; first compound 0.01 µM)?
Answer: The relative viability was 0.0327.

Question: And the relative viability ([3]; first compound 0.03162 µM)?
Answer: Its relative viability is 0.0099.

Question: What about the relative viability ([3]; first compound 0.1 µM) of the same cell line?
Answer: Its relative viability is 0.0111.

Question: And the relative viability ([4]; first compound 0.003162 µM)?
Answer: Its relative viability is 0.337.

Question: And the relative viability ([4]; first compound 0.01 µM)?
Answer: The relative viability was 0.295.

Question: And the relative viability ([4]; first compound 0.03162 µM)?
Answer: The relative viability was 0.228.

Question: And the relative viability ([4]; first compound 0.1 µM)?
Answer: Its relative viability is 0.0843.

Question: And the relative viability ([5]; first compound 0.003162 µM)?
Answer: Its relative viability is 0.488.

Question: What about the relative viability ([5]; first compound 0.01 µM) of the same cell line?
Answer: The relative viability was 0.107.

Question: What about the relative viability ([5]; first compound 0.03162 µM) of the same cell line?
Answer: The relative viability was 0.055.

Question: What about the relative viability ([5]; first compound 0.1 µM) of the same cell line?
Answer: The relative viability was 0.0324.

Question: What does the source list for RERF-LC-KJ?
Answer: relative viability ([1]; first compound 0.003162 µM): 0.341; relative viability ([1]; first compound 0.01 µM): 0.347; relative viability ([1]; first compound 0.03162 µM): 0.267; relative viability ([1]; first compound 0.1 µM): 0.218; relative viability ([2]; first compound 0.003162 µM): 0.702; relative viability ([2]; first compound 0.01 µM): 0.352; relative viability ([2]; first compound 0.03162 µM): 0.252; relative viability ([2]; first compound 0.1 µM): 0.275; relative viability ([3]; first compound 0.003162 µM): 0.37; relative viability ([3]; first compound 0.01 µM): 0.326; relative viability ([3]; first compound 0.03162 µM): 0.255; relative viability ([3]; first compound 0.1 µM): 0.157; relative viability ([4]; first compound 0.003162 µM): 0.909; relative viability ([4]; first compound 0.01 µM): 0.756; relative viability ([4]; first compound 0.03162 µM): 0.398; relative viability ([4]; first compound 0.1 µM): 0.299; relative viability ([5]; first compound 0.003162 µM): 1; relative viability ([5]; first compound 0.01 µM): 0.868; relative viability ([5]; first compound 0.03162 µM): 0.741; relative viability ([5]; first compound 0.1 µM): 0.297
